The record followed here is the Kinase Knowledgebase extract (Sharma et al. 2016).

In one assay the target is EGFR (human) (UniProt P00533). The note with it: concentration not given here.
The target in a further assay is CDK2 (human) (UniProt P24941). Description: Enzyme Assay. The note with it: concentration not given here.

Chain of EGFR (human) (P00533 whole entry, looked up): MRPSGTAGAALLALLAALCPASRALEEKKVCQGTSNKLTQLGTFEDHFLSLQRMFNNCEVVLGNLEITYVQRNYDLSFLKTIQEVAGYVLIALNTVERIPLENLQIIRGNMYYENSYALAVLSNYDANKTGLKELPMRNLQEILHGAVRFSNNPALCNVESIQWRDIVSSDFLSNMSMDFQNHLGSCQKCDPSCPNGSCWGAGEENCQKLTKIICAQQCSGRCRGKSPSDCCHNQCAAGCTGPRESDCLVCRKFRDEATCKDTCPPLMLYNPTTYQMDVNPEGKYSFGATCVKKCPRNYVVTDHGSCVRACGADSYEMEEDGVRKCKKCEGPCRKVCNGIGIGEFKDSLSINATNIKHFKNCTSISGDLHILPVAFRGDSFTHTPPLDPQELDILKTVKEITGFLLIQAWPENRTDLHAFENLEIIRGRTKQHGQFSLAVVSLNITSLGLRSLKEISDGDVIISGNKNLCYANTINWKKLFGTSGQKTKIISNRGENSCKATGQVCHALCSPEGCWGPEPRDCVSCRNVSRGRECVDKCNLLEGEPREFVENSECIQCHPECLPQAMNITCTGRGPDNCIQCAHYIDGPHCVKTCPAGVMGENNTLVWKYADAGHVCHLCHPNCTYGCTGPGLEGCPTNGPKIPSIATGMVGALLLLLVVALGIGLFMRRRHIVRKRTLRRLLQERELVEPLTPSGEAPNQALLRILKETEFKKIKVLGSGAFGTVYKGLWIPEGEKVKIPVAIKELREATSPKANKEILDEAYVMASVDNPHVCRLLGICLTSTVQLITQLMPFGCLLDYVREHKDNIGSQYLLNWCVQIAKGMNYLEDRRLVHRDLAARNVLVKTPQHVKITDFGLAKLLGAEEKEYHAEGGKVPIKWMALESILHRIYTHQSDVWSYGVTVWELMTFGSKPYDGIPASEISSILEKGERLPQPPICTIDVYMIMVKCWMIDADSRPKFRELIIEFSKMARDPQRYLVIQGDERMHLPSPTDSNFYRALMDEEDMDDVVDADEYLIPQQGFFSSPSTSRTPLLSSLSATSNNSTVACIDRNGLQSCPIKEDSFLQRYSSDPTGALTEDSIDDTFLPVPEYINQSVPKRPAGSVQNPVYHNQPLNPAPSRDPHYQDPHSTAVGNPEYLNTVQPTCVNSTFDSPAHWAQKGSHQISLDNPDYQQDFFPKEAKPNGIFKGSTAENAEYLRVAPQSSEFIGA

On to `COc1cc(C2=C(c3c(C)[nH]c4ccccc34)C(=O)NC2=O)cc(OC)c1OC`, for which the inhibition against EGFR (human) was 5%.
Consider `COc1ccc2[nH]c3c4c(OC)c(OC)c(OC)cc4c4c(c3c2c1)C(=O)NC4=O`, for which the inhibition against EGFR (human) is 3%.
With `COc1ccc(C2=C(c3c[nH]c4ccccc34)C(=O)NC2=O)cc1OC`, the inhibition was 7% against CDK2 (human) and 27% against EGFR (human).
As to `COc1cc2c3c(c4c5ccccc5n(C)c4c2c(OC)c1OC)C(=O)NC3=O`, the inhibition against CDK2 (human) was 58%.
